Measured values as given in PMC9612166 (Molecules, 2022).
Read-outs that look alike come from different tables or passages of the source.

Assays:
human Topo I = biological target: T1, human Topo I (Homo sapiens, UniProt P11387); assay: Human Topoisomerase I relaxation high-throughput plate assay (fluorescent DNA stain); format: biochemical
T1 construct: gene TOP1
T1 sequence (P11387 2-765): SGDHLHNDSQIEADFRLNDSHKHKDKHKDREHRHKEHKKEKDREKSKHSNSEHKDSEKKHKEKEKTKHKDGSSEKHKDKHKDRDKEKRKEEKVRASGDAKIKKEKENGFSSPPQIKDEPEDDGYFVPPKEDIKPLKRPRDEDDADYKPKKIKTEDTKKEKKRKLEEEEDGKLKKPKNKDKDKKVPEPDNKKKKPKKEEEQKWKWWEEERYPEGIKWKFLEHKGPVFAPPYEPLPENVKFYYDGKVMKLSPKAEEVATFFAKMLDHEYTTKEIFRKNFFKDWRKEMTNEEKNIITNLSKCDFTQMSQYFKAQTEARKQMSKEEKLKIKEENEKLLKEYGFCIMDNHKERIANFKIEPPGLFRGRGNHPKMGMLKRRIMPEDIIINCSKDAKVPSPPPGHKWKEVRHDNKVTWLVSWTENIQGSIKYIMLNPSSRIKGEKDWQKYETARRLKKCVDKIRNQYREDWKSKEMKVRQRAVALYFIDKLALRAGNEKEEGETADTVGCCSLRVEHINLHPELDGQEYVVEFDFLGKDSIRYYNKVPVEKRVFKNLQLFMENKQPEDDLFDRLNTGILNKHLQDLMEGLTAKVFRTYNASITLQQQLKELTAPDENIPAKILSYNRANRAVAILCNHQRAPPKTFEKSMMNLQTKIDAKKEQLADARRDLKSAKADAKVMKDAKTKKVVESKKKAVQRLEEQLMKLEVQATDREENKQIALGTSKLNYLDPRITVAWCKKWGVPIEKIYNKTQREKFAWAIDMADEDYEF

[1] = system: nicked decamer 2B (DNA, duplex, nick between T5 and G6) GCGTT/GTCGC/GCGACAACGC; assay: NOESY/TOCSY NMR; settings: 25 mM NaCl, 25 mM K3PO4; D2O, pH 6, 298 K; stacking at the nick, intermolecular NOEs
[2] = system: nicked decamer 2B (DNA, duplex, nick between T5 and G6) GCGTT/GTCGC/GCGACAACGC; assay: DOSY NMR diffusion; settings: 25 mM NaCl, 25 mM K3PO4; D2O, pH 6, 298 K; 0.33 mM each; single-point from diffusion coefficients
[3] = system: nicked decamer 2B (DNA, duplex, nick between T5 and G6) GCGTT/GTCGC/GCGACAACGC; assay: MALDI-ToF MS; settings: covalent; alkylated product m/z 7296.2 in reaction mother liquor

| IC50 (human Topo I; read-out: SN38) | Compound | IC50 (human Topo I) | binding [1] | Ka [2] | binding [3] |
| --- | --- | --- | --- | --- | --- |
|  | CCc1c2c(nc3ccc(O)c(CNCCO)c13)-c1cc3c(c(=O)n1C2)COC(=O)[C@]3(O)CC [compound 1, 7-ethyl-9-[N-(2′-hydroxyethyl)amino]methyl-10-hydroxycamptothecin] | 1.73 ± 0.48 µM | yes | 746.0 mM⁻¹ | yes |
| 7.37 ± 7.1 µM | CCc1c2c(nc3ccc(O)cc13)-c1cc3c(c(=O)n1C2)COC(=O)[C@]3(O)CC [SN38, reference compound] |  |  |  |  |
